Assay results taken from the supplement of paper PMC10307832.

Key:
Assay in all cases: relative viability (nuclei count vs DMSO), 5 days (fraction); higher = more cells survive
Alisertib + Dasatinib = compound: COc1cc(Nc2ncc3c(n2)-c2ccc(Cl)cc2C(c2c(F)cccc2OC)=NC3)ccc1C(=O)O [Alisertib] + Cc1nc(Nc2ncc(C(=O)Nc3c(C)cccc3Cl)s2)cc(N2CCN(CCO)CC2)n1 [Dasatinib] (partner 0.075 µM)
Procedure, shortened: (§1)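 After 5 days of treatment, lung cancer cells in 1536-well plates were fixed and stained in a single step (final 0.05% Triton X-100, 1% formaldehyde, 1 ug/ml Hoechst) and their nuclei counted on 4× images. Treatment had been applied by pin tool the day after seeding as one drug alone or as a fixed anchor-drug dose with five library-drug doses (not always all listed) in √10 steps. Relative viability is the nuclei count of treated wells divided by that of vehicle wells, and values are medians of duplicate plates.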

Alisertib + Alpelisib = compound: COc1cc(Nc2ncc3c(n2)-c2ccc(Cl)cc2C(c2c(F)cccc2OC)=NC3)ccc1C(=O)O [Alisertib] + Cc1nc(NC(=O)N2CCC[C@H]2C(N)=O)sc1-c1ccnc(C(C)(C)C(F)(F)F)c1 [Alpelisib] (partner 2 µM)
Procedure, shortened: as §1

Alisertib + Palbociclib = compound: COc1cc(Nc2ncc3c(n2)-c2ccc(Cl)cc2C(c2c(F)cccc2OC)=NC3)ccc1C(=O)O [Alisertib] + CC(=O)c1c(C)c2cnc(Nc3ccc(N4CCNCC4)cn3)nc2n(C2CCCC2)c1=O [Palbociclib] (partner 0.5 µM)
Procedure, shortened: as §1

Alisertib + Bortezomib = compound: COc1cc(Nc2ncc3c(n2)-c2ccc(Cl)cc2C(c2c(F)cccc2OC)=NC3)ccc1C(=O)O [Alisertib] + CC(C)C[C@H](NC(=O)[C@H](Cc1ccccc1)NC(=O)c1cnccn1)B(O)O [Bortezomib] (partner 0.002 µM)
Procedure, shortened: as §1

Row | Cell Line | relative viability (Alisertib + Dasatinib; first compound 0.005 µM) | relative viability (Alisertib + Dasatinib; first compound 0.01581 µM) | relative viability (Alisertib + Dasatinib; first compound 0.05 µM) | relative viability (Alisertib + Dasatinib; first compound 0.1581 µM) | relative viability (Alisertib + Dasatinib; first compound 0.5 µM) | relative viability (Alisertib + Alpelisib; first compound 0.005 µM) | relative viability (Alisertib + Alpelisib; first compound 0.01581 µM) | relative viability (Alisertib + Alpelisib; first compound 0.05 µM) | relative viability (Alisertib + Alpelisib; first compound 0.1581 µM) | relative viability (Alisertib + Alpelisib; first compound 0.5 µM) | relative viability (Alisertib + Palbociclib; first compound 0.005 µM) | relative viability (Alisertib + Palbociclib; first compound 0.01581 µM) | relative viability (Alisertib + Palbociclib; first compound 0.05 µM) | relative viability (Alisertib + Palbociclib; first compound 0.1581 µM) | relative viability (Alisertib + Palbociclib; first compound 0.5 µM) | relative viability (Alisertib + Bortezomib; first compound 0.005 µM) | relative viability (Alisertib + Bortezomib; first compound 0.01581 µM) | relative viability (Alisertib + Bortezomib; first compound 0.05 µM) | relative viability (Alisertib + Bortezomib; first compound 0.1581 µM) | relative viability (Alisertib + Bortezomib; first compound 0.5 µM)
1 | LK-2 | 0.353 | 0.267 | 0.212 | 0.192 | 0.153 | 1.08 | 0.878 | 0.364 | 0.299 | 0.268 | 0.684 | 0.67 | 0.403 | 0.178 | 0.148 | – | – | – | – | –
2 | NCI-H1944 | 0.196 | 0.217 | 0.218 | 0.113 | 0.113 | 0.788 | 0.882 | 0.626 | 0.41 | 0.207 | 0.33 | 0.357 | 0.27 | 0.187 | 0.159 | – | – | – | – | –
3 | NCI-H1650 | 0.325 | 0.298 | 0.164 | 0.138 | 0.125 | – | – | – | – | – | 0.292 | 0.328 | 0.233 | 0.116 | 0.188 | 0.175 | 0.21 | 0.174 | 0.182 | 0.199
4 | NCI-H596 | 0.593 | 0.688 | 0.626 | 0.53 | 0.342 | – | 0.478 | 0.481 | 0.351 | 0.172 | – | – | – | – | – | – | 0.862 | 1.83 | 0.854 | 0.43
5 | SK-MES-1 | 0.354 | 0.466 | 0.253 | 0.125 | 0.074 | 0.681 | 0.717 | 0.341 | 0.172 | 0.139 | 0.316 | 0.346 | 0.29 | 0.226 | 0.161 | – | – | – | – | –
6 | NCI-H2170 | 0.443 | 0.561 | 0.403 | 0.225 | 0.167 | 0.732 | 0.749 | 0.424 | 0.34 | 0.199 | 0.366 | 0.365 | 0.243 | 0.22 | 0.155 | – | – | – | – | –
7 | NCI-H358 | 0.168 | 0.176 | 0.114 | 0.0896 | 0.0837 | 0.753 | 0.584 | 0.257 | 0.19 | 0.151 | 0.111 | 0.117 | 0.104 | 0.0711 | 0.0985 | – | – | – | – | –
8 | NCI-H1563 | 0.441 | 0.544 | 0.442 | 0.414 | 0.387 | 0.967 | 0.848 | 0.9 | 0.824 | 0.719 | – | – | – | – | – | 0.835 | 0.817 | 0.833 | 0.858 | 0.604
9 | EBC-1 | – | – | – | – | – | 0.578 | 0.597 | 0.272 | 0.225 | 0.153 | – | – | – | – | – | 0.537 | 0.467 | 0.239 | 0.186 | 0.162
10 | Calu-6 | – | – | – | – | – | 0.771 | 0.566 | 0.249 | 0.188 | 0.191 | – | – | – | – | – | 0.89 | 0.57 | 0.316 | 0.189 | 0.195
11 | HCC-44 | – | – | – | – | – | 0.759 | 0.716 | 0.458 | 0.17 | 0.0925 | 0.949 | 0.85 | 0.636 | 0.616 | 0.338 | 0.95 | 0.827 | 0.664 | 0.28 | 0.15
